How the values were obtained:
E. floccosum = assay: Full skin model infected with spores, treatment, histology; assay type: cell-based, Epidermophyton floccosum; conditions: 48 h and 72 h, sertaconazol 0.010, ciclopiroxolamin 400, terbinafin 0.200 µg/mL
Text: (§1) For an application in vivo, there is the additional requirement for the antimycotic substances to evoke a targeted antimycotic activity in the presence of human cells. Thus, 3D-cell-cultures such as full skin models are used to simulate the in vivo conditions. Such full skin models are for example described in Reddersen K, Wiegand C, Elsner P, Hipler UC. Three-dimensional human skin model infected with Staphylococcus aureus as a tool for evaluation of bioactivity and biocompatibility of antiseptics. Int J Antimicrob Agents. 2019; 54(3):283-291; Wiegand C, Fink S, Beier O, Horn K, Pfuch A, Schimanski A, Grünler B, Hipler UC, Elsner P. Dose- and Time-Dependent Cellular Effects of Cold Atmospheric Pressure Plasma Evaluated in 3D Skin Models. Skin Pharmacol Physiol. 2016;29(5):257-265. Particularly, such full skin models are made of a collagen matrix, which is colonized with primary human fibroblasts, and a fully differentiated epidermis made of primary human keratinocytes. For the experiments, the model is infected in vitro with spores, such that a determination of the sporistatic or sporicidal influence of the substances to be examined at in vivo relevant conditions is allowed. Compared to a 2D-model, the 3D full skin model has the advantage that the cells are in their natural three-dimensional surrounding and show a corresponding behaviour. Such, the antimycotic and sporistatic or sporicidal effects can be examined in situ and in the presence of human cells.
(§2) The spore suspensions and the solutions of sertaconazol, ciclopiroxolamin and terbinafin were prepared as in Example 1, wherein the respective test concentrations were obtained by diluting these solutions in ultrapure water (WFI; Fresenius Kabi) instead of SGB (Merck). Full skin models were produced as previously described [Reddersen K, Wiegand C, Elsner P, Hipler UC. […] 2019; 54(3):283-291; Wiegand C, Fink S, Beier O, Horn K, Pfuch A, Schimanski A, Grünler B, Hipler UC, Elsner P. Dose- and Time-Dependent Cellular Effects of Cold Atmospheric Pressure Plasma Evaluated in 3D Skin Models. […]

S. brevicaulis = assay: Full skin model infected with spores, treatment, histology (PAS-staining); assay type: cell-based, Scopulariopsis brevicaulis; conditions: 48 h and 72 h, sertaconazol 100, ciclopiroxolamin 400, terbinafin 100 µg/mL, Fig. 6, stated as 'the same applies' as for E. floccosum
Text: as §1, §2

| SMILES | outgrowth of E. floccosum (E. floccosum) | outgrowth of S. brevicaulis (S. brevicaulis) |
| --- | --- | --- |
| Cc1cc(C2CCCCC2)n(O)c(=O)c1 [Ciclopiroxolamin, ciclopiroxolamin] | only reduced | only reduced |
| CN(C/C=C/C#CC(C)(C)C)Cc1cccc2ccccc12 [Terbinafin, terbinafin] | only reduced | only reduced |
| Clc1ccc(C(Cn2ccnc2)OCc2csc3c(Cl)cccc23)c(Cl)c1 (stereo not drawn) [Sertaconazol, sertaconazol] | inhibited | inhibited |
